Measurements as given in PubChem BioAssay AID330 (DTP/NCI, 2004).
Where “and” joins values, the source holds several entries; their conditions need not be identical. Equal entries are not always repeated. Toxic doses and inconclusive results are not listed. The calls were made as follows: active = survival T/C of 150% or more; inactive = T/C below 125% in these data.

System: P388 leukemia ip, CD2F1 mice, survival T/C
Test: NCI In Vivo Anticancer Drug Screen. Data for tumor model P388 Leukemia (intraperitoneal) in CD2F1 (CDF1) mice
Settings: endpoint: median survival time, higher = longer survival
Outline: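 Mice carrying the transplanted tumor received test compound or vehicle. Survival was recorded in each group, and the value is the treated-group measurement divided by that of the vehicle-treated control group.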

[1] = dose: 60.0 mg/kg/injection, schedule: Q01DX005 (ip), vehicle: saline with Tween-80
[2] = dose: 120.0 mg/kg/injection, schedule: Q01DX005 (ip), vehicle: saline with Tween-80
[3] = dose: 240.0 mg/kg/injection, schedule: Q01DX005 (ip), vehicle: saline with Tween-80
[4] = dose: 50.0 mg/kg/injection, schedule: Q01DX009 (ip), vehicle: saline with Tween-80
[5] = dose: 100.0 mg/kg/injection, schedule: Q01DX009 (ip), vehicle: saline with Tween-80
[6] = dose: 200.0 mg/kg/injection, schedule: Q01DX009 (ip), vehicle: saline with Tween-80
[7] = dose: 400.0 mg/kg/injection, schedule: Q01DX009 (ip), vehicle: saline with Tween-80

Measured: T/C

CCCCC(CC)(CC(=N)C(C)(C)C)c1ccccc1 (stereo not given)
inactive: dose: 50.0 mg/kg/injection, schedule: Q01DX009 (ip), vehicle: saline + alcohol 111 % of control | dose: 100.0 mg/kg/injection, schedule: Q01DX009 (ip), vehicle: saline + alcohol 103 % of control | dose: 200.0 mg/kg/injection, schedule: Q01DX009 (ip), vehicle: saline + alcohol 119 % of control

COC(=O)c1ccc(=O)c2nc3/c(=C/O)c(O)c(C)c(=O)c3[nH]c12
inactive: dose: 6.25 mg/kg/injection, schedule: Q01DX005 (ip), vehicle: other 117 % of control | dose: 12.5 mg/kg/injection, schedule: Q01DX005 (ip), vehicle: other 122 % of control

CC(C)(CCN)c1cc(CC(C)(C)C2(C)OCCO2)no1
inactive: dose: 50.0 mg/kg/injection, schedule: Q01DX005 (ip), vehicle: saline with Tween-80 113 % of control | dose: 100.0 mg/kg/injection, schedule: Q01DX005 (ip), vehicle: saline with Tween-80 108 % of control | dose: 200.0 mg/kg/injection, schedule: Q01DX005 (ip), vehicle: saline with Tween-80 113 % of control

O=C(c1ccccc1)N1OCCc2ccccc21
inactive: [1] 100 % of control | [2] 104 % of control | [3] 96 % of control

O=C1SC/C(=N\N=c2/scc(-c3ccccc3)n2-c2ccccc2)N1Cc1ccccc1
inactive: dose: 100.0 mg/kg/injection, schedule: Q04DX002 (ip), vehicle: Klucel (hydroxypropylcellulose) (HPC) 90 % of control | dose: 200.0 mg/kg/injection, schedule: Q04DX002 (ip), vehicle: Klucel (hydroxypropylcellulose) (HPC) 91 % of control | dose: 400.0 mg/kg/injection, schedule: Q04DX002 (ip), vehicle: Klucel (hydroxypropylcellulose) (HPC) 88 % of control

O=C(/C=C/c1ccccc1)c1ccccc1O
inactive: [4] 96 % of control | [5] 104 % of control | [6] 101 % of control

O=C(NC(CSSCC(NC(=O)c1ccccc1)C(=O)O)C(=O)O)c1ccccc1 (stereo not given)
inactive: [4] 109 % of control | [5] 90 % of control | [6] 101 % of control | [7] 93 % of control

CCOc1c(N=Nc2ccccc2OC)c(C)nn1C(N)=S
inactive: dose: 3.75 mg/kg/injection, schedule: Q01DX005 (ip), vehicle: Klucel + Tween-80 100 % of control | dose: 7.5 mg/kg/injection, schedule: Q01DX005 (ip), vehicle: Klucel + Tween-80 94 % of control | dose: 15.0 mg/kg/injection, schedule: Q01DX005 (ip), vehicle: Klucel + Tween-80 99 % of control and 105 % of control

CC(=O)NCCCCCCNC(C)=O
inactive: dose: 25.0 mg/kg/injection, schedule: Q01DX009 (ip), vehicle: saline 100 % of control and 111 % of control and 97 % of control | dose: 31.0 mg/kg/injection, schedule: Q03HX008 (ip), vehicle: saline 101 % of control | dose: 41.7 mg/kg/injection, schedule: Q03HX024 (ip), vehicle: saline 105 % of control | dose: 50.0 mg/kg/injection, schedule: Q01DX009 (ip), vehicle: saline 100 % of control and 103 % of control and 119 % of control | dose: 62.5 mg/kg/injection, schedule: Q03HX008 (ip), vehicle: saline 103 % of control | dose: 83.0 mg/kg/injection, schedule: Q03HX024 (ip), vehicle: saline 107 % of control | dose: 100.0 mg/kg/injection, schedule: Q01DX009 (ip), vehicle: saline 103 % of control and 104 % of control | dose: 125.0 mg/kg/injection, schedule: Q03HX008 (ip), vehicle: saline 103 % of control | dose: 166.7 mg/kg/injection, schedule: Q03HX024 (ip), vehicle: saline 110 % of control | dose: 200.0 mg/kg/injection, schedule: Q01DX009 (ip), vehicle: saline 100 % of control and 105 % of control and 117 % of control | dose: 250.0 mg/kg/injection, schedule: Q01DX001 (ip), vehicle: saline 99 % of control | dose: 250.0 mg/kg/injection, schedule: Q03HX008 (ip), vehicle: saline 106 % of control | dose: 333.0 mg/kg/injection, schedule: Q03HX024 (ip), vehicle: saline 110 % of control | dose: 333.0 mg/kg/injection, schedule: Q04DX003 (ip), vehicle: saline 101 % of control | dose: 400.0 mg/kg/injection, schedule: Q01DX009 (ip), vehicle: saline 100 % of control and 105 % of control and 111 % of control | dose: 500.0 mg/kg/injection, schedule: Q01DX001 (ip), vehicle: saline 99 % of control | dose: 500.0 mg/kg/injection, schedule: Q03HX008 (ip), vehicle: saline 113 % of control | dose: 500.0 mg/kg/injection, schedule: Q03HX024 (ip), vehicle: saline 111 % of control | dose: 666.7 mg/kg/injection, schedule: Q04DX003 (ip), vehicle: saline 108 % of control | dose: 800.0 mg/kg/injection, schedule: Q01DX009 (ip), vehicle: saline 101 % of control and 108 % of control and 114 % of control | dose: 1000.0 mg/kg/injection, schedule: Q01DX001 (ip), vehicle: saline 101 % of control | dose: 1000.0 mg/kg/injection, schedule: Q03HX008 (ip), vehicle: saline 107 % of control | dose: 1333.0 mg/kg/injection, schedule: Q04DX003 (ip), vehicle: saline 106 % of control | dose: 2000.0 mg/kg/injection, schedule: Q01DX001 (ip), vehicle: saline 103 % of control | dose: 2666.0 mg/kg/injection, schedule: Q04DX003 (ip), vehicle: saline 105 % of control

Cc1ncc(CNC(=O)N(CCCl)N=O)c(N)n1
120 % of control and 260 % of control: dose: 40.0 mg/kg/injection, schedule: Q01DX001 (ip), vehicle: saline
active: dose: 10.0 mg/kg/injection, schedule: Q01DX001 (ip), vehicle: saline 191 % of control | dose: 20.0 mg/kg/injection, schedule: Q01DX001 (ip), vehicle: saline 260 % of control and 336 % of control | dose: 30.0 mg/kg/injection, schedule: Q01DX001 (ip), vehicle: saline 517 % of control

O=C(c1ccc(Cl)cc1)C(O)NC(=S)c1ccc(Cl)cc1 (stereo not given)
inactive: [4] 96 % of control | [5] 111 % of control | [6] 113 % of control

CCOC(=O)C1=C(C)NC(C)=C(C(=O)OCC)C1c1ccc(Cl)cc1
inactive: [4] 88 % of control | [5] 94 % of control | [6] 95 % of control | [7] 93 % of control

CCOC(=O)c1c(Cl)c(CC)c(Cl)n2c1nc1ccccc12
inactive: [1] 97 % of control | [2] 93 % of control | [3] 101 % of control

CN(NC=O)C(=N)N
inactive: dose: 50.0 mg/kg/injection, schedule: Q01DX001 (ip), vehicle: saline 109 % of control | dose: 100.0 mg/kg/injection, schedule: Q01DX001 (ip), vehicle: saline 100 % of control | dose: 200.0 mg/kg/injection, schedule: Q01DX001 (ip), vehicle: saline 102 % of control

O=[N+]([O-])c1cc(S(=O)(=O)O)cc([N+](=O)[O-])c1Cl
inactive: dose: 25.0 mg/kg/injection, schedule: Q01DX009 (ip), vehicle: Klucel (hydroxypropylcellulose) (HPC) 116 % of control | dose: 50.0 mg/kg/injection, schedule: Q01DX009 (ip), vehicle: Klucel (hydroxypropylcellulose) (HPC) 114 % of control | dose: 100.0 mg/kg/injection, schedule: Q01DX009 (ip), vehicle: Klucel (hydroxypropylcellulose) (HPC) 119 % of control

COC1(c2ccccc2)C(c2ccccc2)=CC(c2ccccc2)=[N+]1[O-] (stereo not given)
inactive: dose: 50.0 mg/kg/injection, schedule: Q04DX003 (ip), vehicle: saline 95 % of control | dose: 100.0 mg/kg/injection, schedule: Q04DX003 (ip), vehicle: saline 109 % of control | dose: 200.0 mg/kg/injection, schedule: Q04DX003 (ip), vehicle: saline 95 % of control

CNc1cc(=O)[nH]c(-c2ccccc2)n1
inactive: dose: 45.0 mg/kg/injection, schedule: Q01DX009 (ip), vehicle: saline with Tween-80 89 % of control | dose: 90.0 mg/kg/injection, schedule: Q01DX009 (ip), vehicle: saline with Tween-80 97 % of control | dose: 180.0 mg/kg/injection, schedule: Q01DX009 (ip), vehicle: saline with Tween-80 105 % of control

Cc1c2c(c(C)c3c1C(=O)c1cc4c(cc1C3=O)OCO4)OC(C)(C)O2
inactive: [1] 89 % of control | [2] 94 % of control | [3] 100 % of control

CCC1(O)CC2CCc3[nH]c4ccccc4c3CCN(C2)C1 (stereo not given)
inactive: dose: 5.25 mg/kg/injection, schedule: Q01DX005 (ip), vehicle: Klucel (hydroxypropylcellulose) (HPC) 100 % of control | dose: 10.5 mg/kg/injection, schedule: Q01DX005 (ip), vehicle: Klucel (hydroxypropylcellulose) (HPC) 100 % of control | dose: 21.0 mg/kg/injection, schedule: Q01DX005 (ip), vehicle: Klucel (hydroxypropylcellulose) (HPC) 98 % of control | dose: 42.0 mg/kg/injection, schedule: Q01DX005 (ip), vehicle: Klucel (hydroxypropylcellulose) (HPC) 95 % of control

c1ccc(-c2cnnc3c4ccccc4nn23)cc1
inactive: dose: 50.0 mg/kg/injection, schedule: Q01DX005 (ip), vehicle: Klucel (hydroxypropylcellulose) (HPC) 97 % of control | dose: 100.0 mg/kg/injection, schedule: Q01DX005 (ip), vehicle: Klucel (hydroxypropylcellulose) (HPC) 96 % of control | dose: 200.0 mg/kg/injection, schedule: Q01DX005 (ip), vehicle: Klucel (hydroxypropylcellulose) (HPC) 91 % of control
